ChEMBL document CHEMBL4339186, “Repurposing nitrocatechols: 5-Nitro-α-cyanocarboxamide derivatives of caffeic acid and caffeic acid phenethyl ester effectively inhibit aggregation of tau-derived hexapeptide AcPHF6” (Eur J Med Chem, 2019)
Calls of active or inactive are those of the source. No cut-off for these calls is given here.

Columns and labels:
[1] = Inhibition of synthetic AcPHF6 peptide aggregation in pH 7.4 phosphate buffer assessed as reduction in fluorescence intensity at 50 uM and measured every minute over 2 hrs with 5 secs shaking prior to each reading by ThT fluorescence assay
[2] = Metal chelating activity assessed as Cu2+-compound complex formation at 40 uM after 30 mins by UV-Visible spectrophotometric method
[3] = Metal chelating activity assessed as Fe2+-compound complex formation at 40 uM after 30 mins by UV-Visible spectrophotometric method
[4] = Metal chelating activity assessed as Cu2+-compound complex formation at 40 uM incubated with 0-100 uM copper(II) sulfate after 30 mins by UV-Visible spectrophotometric method

Compound | inhibition [1] | Activity [2] | Activity [3] | Activity [4]
O=C(/C=C/c1ccc(O)c(O)c1)NCCc1ccccc1 | inactive | – | – | –
O=C(O)/C=C/c1ccc(O)c(O)c1 | inactive | – | – | –
N#C/C(=C\c1cc(O)c(O)c([N+](=O)[O-])c1)C(=O)OCCc1ccccc1 | 74.4% | Active | inactive | –
O=C(O)/C=C/c1cc(O)c(O)c(O)c1 | inactive | – | – | –
CCOC(=O)C(=Cc1ccc(O)c(O)c1)C(=O)OCC | inactive | – | – | –
O=C(O)/C=C/c1cc(O)c(O)c(Br)c1 | 18% | – | – | –
N#C/C(=C\c1cc(O)c(O)c([N+](=O)[O-])c1)C(=O)NCc1ccccc1 | 90.5% | Active | inactive | –
O=C(O)c1ccc(O)c(O)c1 | inactive | – | – | –
O=C(O)C(=Cc1cc(O)c(O)c([N+](=O)[O-])c1)C(=O)O | inactive | – | – | –
CCOC(=O)/C=C/c1cc(O)c(O)c([N+](=O)[O-])c1 | 44% | – | – | –
N#C/C(=C\c1cc(O)c(O)c([N+](=O)[O-])c1)C(=O)OCc1ccccc1 | 71.2% | Active | inactive | –
O=C(/C=C/c1cc(O)c(O)c([N+](=O)[O-])c1)OCCc1ccccc1 | 55.2% | Active | inactive | –
O=C(O)/C=C/c1ccc(O)cc1 | inactive | – | – | –
O=C(O)c1cc(O)c(O)c(O)c1 | inactive | – | – | –
CCOC(=O)C(=Cc1cc(O)c(O)c([N+](=O)[O-])c1)C(=O)OCC | 41% | – | – | –
O=C(/C=C/c1cc(O)c(O)c([N+](=O)[O-])c1)OCc1ccccc1 | 44.5% | Active | inactive | –
N#C/C(=C\c1cc(O)c(O)c([N+](=O)[O-])c1)C(=O)NCCc1ccccc1 | 89.2% | Active | inactive | Active
Cc1ccc(C(=O)c2cc(O)c(O)c([N+](=O)[O-])c2)cc1 | 64.6% | – | – | –
CCOC(=O)C(=Cc1cc(O)c(O)c(O)c1)C(=O)OCC | inactive | – | – | –
O=S(=O)(O)c1cc(S(=O)(=O)O)c2c(/N=N/c3ccccc3)c(O)ccc2c1 | 54% | – | – | –
O=C(/C=C/c1ccc(O)c(O)c1)OCCc1ccccc1 | 17% | – | – | –
CCN(CC)C(=O)/C(C#N)=C/c1cc(O)c(O)c([N+](=O)[O-])c1 | 60.3% | – | – | –
CCOC(=O)C(=Cc1ccc(O)cc1)C(=O)OCC | inactive | – | – | –
O=C(O)/C=C/c1cc(O)c(O)c([N+](=O)[O-])c1 | 45% | – | – | –
CCOC(=O)/C=C/c1ccc(O)c(O)c1 | inactive | – | – | –
CCOC(=O)/C=C/c1cc(O)c(O)c(O)c1 | 21% | – | – | –
O=C(/C=C/c1ccc(O)c(O)c1)OCc1ccccc1 | 13% | – | – | –
CCOC(=O)/C=C/c1ccc(O)cc1 | inactive | – | – | –
